Test results from the C3SDB collision cross section collection.
Several values for one entry are separate records, joined by “and”; a condition that tells them apart may be missing. Equal values may be shown once.

Settings: instrument: DT, single field, calibrated with ESI Low Concentration Tuning Mix (Agilent)

Row | SMILES | collision cross section (N2) ([M+Na-2H]-) | collision cross section (N2) ([M+Na]+) | collision cross section (N2) ([M-H]-) | collision cross section (N2) ([M+H]+) | other results
1 | O=C(O)[C@H](O)[C@@H](O)[C@H](O)[C@H](O)COP(=O)(O)O [6-PHOSPHOGLUCONATE] | 148.9 Å² | 157.6 Å² | 143.6 Å² |  | 
2 | Nc1ncnc2c1ncn2C1OC(CO)C2OP(=O)(O)OC21 (configuration not stated) [ADENOSINE 2',3'-CYCLIC PHOSPHATE] |  | 175.1 Å² and 181 Å² | 169.4 Å² | 168.1 Å² | collision cross section (N2) ([M+H2O-H]-): 173.5 Å²
3 | Nc1ncnc2c1ncn2[C@@H]1O[C@H](COP(=O)(O)OP(=O)(O)O)[C@@H](O)[C@H]1O [ADENOSINE 5'-DIPHOSPHATE] | 187.7 Å² | 193.1 Å² | 183.7 Å² | 187 Å² | 
4 | NC(=O)NC1NC(=O)NC1=O (configuration not stated) [ALLANTOIN] |  | 142.2 Å² | 125.5 Å² |  | 
5 | OC[C@H]1OC(O)[C@H](O)[C@H](O)[C@@H]1O (some centres not stated) [ALLOSE] |  | 143.2 Å² and 146.2 Å² |  |  | 
6 | NC(CCCC(=O)O)C(=O)O (configuration not stated) [AMINOADIPATE] | 134 Å² | 139.2 Å² | 129.9 Å² | 134.6 Å² | 
7 | Nc1ccccc1C(=O)O [ANTHRANILATE] |  |  | 125.5 Å² |  | 
8 | CCCCCCCCCCCCCCCCCCCC(=O)O [ARACHIDATE] |  |  | 185.1 Å² |  | 
9 | NC(=O)C[C@H](N)C(=O)O [ASPARAGINE] |  | 129.5 Å² | 121.9 Å² |  | 
10 | C[N+](C)(C)CC(=O)[O-] [BETAINE] |  |  |  |  | collision cross section (N2) ([M+K]+): 130.5 Å²
11 | C=CC1=C(C)C(/C=c2\[nH]/c(=C\c3[nH]c(/C=C4\NC(=O)C(C)=C4C=C)c(C)c3CCC(=O)O)c(CCC(=O)O)c2C)=NC1=O [BILIVERDIN] |  | 246.5 Å² | 246 Å² | 243.9 Å² | 
12 | O=C(O)[C@H]1C[C@@H](O)CN1 [CIS-4-HYDROXY-D-PROLINE] |  | 130.6 Å² | 124.3 Å² | 128.3 Å² | 
13 | CC(O)(CC(=O)O)C(=O)O (configuration not stated) [CITRAMALATE] |  | 133.2 Å² | 122 Å² |  | 
14 | COC1=C(OC)C(=O)C(C/C=C(\C)CC/C=C(\C)CC/C=C(\C)CC/C=C(\C)CC/C=C(\C)CC/C=C(\C)CC/C=C(\C)CC/C=C(\C)CC/C=C(\C)CCC=C(C)C)=C(C)C1=O [COENZYME Q10] |  | 306.6 Å² |  |  | 
15 | CC(=O)OCC(=O)[C@@]1(O)CC[C@H]2[C@@H]3CCC4=CC(=O)CC[C@]4(C)[C@H]3[C@@H](O)C[C@@]21C [CORTISOL 21-ACETATE] |  | 203 Å² | 196.3 Å² | 198.8 Å² | collision cross section (N2) ([M+K]+): 207.2 Å²
16 | Nc1nc(=O)c2ncn([C@@H]3O[C@@H]4COP(=O)(O)O[C@H]4[C@H]3O)c2[nH]1 [CYCLIC GMP] | 169.7 Å² | 184.2 Å² | 167.8 Å² | 172.4 Å² | 
17 | NC(CCSCC(N)C(=O)O)C(=O)O (configuration not stated) [CYSTATHIONINE] | 144.6 Å² | 147.1 Å² | 141.9 Å² | 147.3 Å² | 
18 | Nc1ccn([C@@H]2O[C@H](COP(=O)(O)O)[C@@H](O)[C@H]2O)c(=O)n1 [CYTIDINE MONOPHOSPHATE] | 163.2 Å² and 163.4 Å² | 167.9 Å² and 168 Å² | 164.4 Å² and 164.5 Å² | 166.8 Å² and 167 Å² | 
19 | Nc1ccn([C@@H]2O[C@H](COP(=O)(O)OP(=O)(O)OP(=O)(O)O)[C@@H](O)[C@H]2O)c(=O)n1 [CYTIDINE TRIPHOSPHATE] | 185 Å² | 192.4 Å² | 181.2 Å² | 188.4 Å² | 
20 | Nc1ccnc(=O)[nH]1 [CYTOSINE] |  |  |  | 122.8 Å² | 
21 | N[C@@H]1C(O)O[C@H](CO)[C@@H](O)[C@@H]1O (stereo partly drawn) [D-MANNOSAMINE] |  | 141.3 Å² |  | 138.1 Å² | 
22 | Nc1ncnc2c1ncn2[C@H]1C[C@H](O)[C@@H](COP(=O)(O)O)O1 [DEOXYADENOSINE MONOPHOSPHATE] | 169.8 Å² | 173 Å² | 164.9 Å² | 168.5 Å² | 
23 | Nc1ccn([C@H]2C[C@H](O)[C@@H](COP(=O)(O)O)O2)c(=O)n1 [DEOXYCYTIDINE MONOPHOSPHATE] |  | 157 Å² and 164.7 Å² | 162.4 Å² |  | 
24 | O=CC[C@H](O)[C@H](O)CO [DEOXYRIBOSE] |  | 134.3 Å² |  |  | 
25 | C[C@H](O)[C@H](O)C1=Nc2c([nH]c(N)nc2=O)NC1 [DIHYDROBIOPTERIN] |  |  |  |  | collision cross section (N2) ([M+H]+*): 153.9 Å²; collision cross section (N2) ([M+Na]+*): 157.2 Å²
26 | NCCc1ccc(O)c(O)c1 [DOPAMINE] |  |  | 131.8 Å² | 142.3 Å² | 
27 | OC[C@@H](O)[C@@H](O)CO [ERYTHRITOL] |  | 129.9 Å² |  |  | 

Now from value to compound, other results behind:

Row | collision cross section (N2) ([M+Na-2H]-) | collision cross section (N2) ([M+Na]+) | collision cross section (N2) ([M-H]-) | collision cross section (N2) ([M+H]+) | SMILES | other results
28 | 201.3 Å² | 205.7 Å² | 192 Å² | 196.2 Å² | Nc1nc(=O)c2nc(CNc3ccc(C(=O)N[C@@H](CCC(=O)O)C(=O)O)cc3)cnc2[nH]1 [FOLATE] | 
29 |  | 138.7 Å² |  |  | C[C@@H]1OC(O)[C@@H](O)[C@H](O)[C@@H]1O (some centres not stated) [FUCOSE] | 
30 | 137.2 Å² | 146.9 Å² | 132.6 Å² |  | O=C(O)[C@@H](O)[C@H](O)[C@H](O)[C@@H](O)C(=O)O [GALACTARATE] | 
31 |  | 142.2 Å² | 130.5 Å² |  | OC[C@@H](O)[C@H](O)[C@H](O)[C@@H](O)CO [GALACTITOL] | 
32 |  | 146.2 Å² and 146.3 Å² | 132.4 Å² |  | O=C(O)[C@H](O)[C@@H](O)[C@H](O)[C@H](O)CO [GLUCONATE] | 
33 |  |  | 149.4 Å² |  | N[C@@H]1[C@@H](O)[C@H](O)[C@@H](COS(=O)(=O)O)O[C@H]1O [GLUCOSAMINE 6-SULFATE] | 
34 | 131.8 Å² |  | 123.8 Å² | 131.1 Å² | N[C@@H](CCC(=O)O)C(=O)O [GLUTAMATE] | collision cross section (N2) ([M+K]+): 149.8 Å²
35 |  |  | 127.3 Å² | 130.9 Å² | NC(=O)CC[C@H](N)C(=O)O [GLUTAMINE] | 
36 |  | 167.1 Å² | 165.3 Å² | 161.1 Å² | C[N+](C)(C)C[C@@H](CC(=O)[O-])OC(=O)CCCC(=O)O [GLUTARYLCARNITINE] | 
37 |  | 203.6 Å² | 200.7 Å² | 196.8 Å² | C[C@H](CCC(=O)NCC(=O)O)[C@H]1CC[C@H]2[C@@H]3[C@H](O)C[C@@H]4C[C@H](O)CC[C@]4(C)[C@H]3CC[C@]12C [GLYCOCHENODEOXYCHOLATE] | 
38 |  | 134.6 Å² |  | 124.9 Å² | NC(N)=NCC(=O)O [GUANIDINOACETATE] | 
39 | 147 Å² | 148 Å² | 130.2 Å² | 136.8 Å² | NC(N)=N[C@@H](CC(=O)O)C(=O)O [GUANIDINOSUCCINATE] | 
40 | 205.5 Å² and 217.2 Å² | 222.3 Å² | 209 Å² | 227.4 Å² | Nc1nc(=O)c2ncn([C@@H]3O[C@H](COP(=O)(O)OP(=O)(O)O[C@H]4O[C@H](CO)[C@@H](O)[C@H](O)[C@@H]4O)[C@@H](O)[C@H]3O)c2[nH]1 [GUANOSINE DIPHOSPHATE MANNOSE] | 
